Reference: patent US20060204502A1 (priority 2004, published 2006)
Several values for one entry are separate records, joined by “and”; a condition that tells them apart may be missing. Equal values may be shown once. Read-outs that look alike come from different tables or passages of the source.

Key:
[1] = test system: HIF-1α; assay: HIF-1α protein immunoblot in hypoxic cells; format: cell-based, human; conditions: A375; for effect on adenosine-induced HIF-1α protein expression / effect on Cl-IB-MECA-induced increase of HIF-1α protein expression: hypoxia 4 hours; for effect on adenosine-induced HIF-1α protein expression: adenosine 100 μM, antagonist 100 nM; for effect on Cl-IB-MECA-induced increase of HIF-1α protein expression: Cl-IB-MECA 100 nM, U0126 10 and 30 μM, SB202190 1 and 10 μM
Description: Cell culture and hypoxia treatment: Cells were maintained in DMEM (A375), EMEM (NCTC 2544) or RPMI 1640 (U87MG, U2OS) medium containing 10% fetal calf serum, penicillin (100 U/ml), streptomycin (100 ug/ml), and L-glutamine (2 mM) at 37° C. in 5% CO2/95% air. Cells were passaged two or three times weekly at a ratio between 1:5 and 1:10. Hypoxic exposure was in BBL™ GasPak pouch™ System (Becton Dickinson) that reduce oxygen concentration of less than 2% within 2 hours of incubation at 35° C.
Cells were harvested and washed with ice-cold PBS containing 1 mM sodium orthovanadate, AEBSF 104 mM, aprotinin 0.08 mM, leupeptin 2 mM, bestatin 4 mM, pepstatin A 1.5 mM, E-64 1.4 mM. Cells were then lysed in Triton lysis buffer. The protein concentration was determined using BCA protein assay kit (Pierce). […] The gel was then electroblotted onto a nitrocellulose membrane. Membranes were blocked with 5% nonfat dry milk in PBS containing 0.1% Tween-20 and incubated with antibodies against HIF-1α (1:250 dilution) and HIF-1β (1:1000 dilution) in 5% nonfat dry milk in PBS/0.1% Tween-20 overnight at 4° C. Aliquots of total protein sample (50 ug) were analyzed using antibodies specific for phosphorylated (Thr183/Tyr185) or total p44/p42 MAPK (1:5000 dilution), phosphorylated (Thr180/Tyr182) or total p38 MAPK (1:1000 dilution) and for A3 receptor (1 µg/ml dilution). Filters were washed and incubated for 1 hour at room temperature with peroxidase-conjugated secondary antibodies against mouse and rabbit IgG (1:2000 dilution). […] The membranes were then stripped and reprobed with tubulin (1:250) to ensure equal protein loading.
U0126 was used at 10 and 30 uM as inhibitor of MEK-1 and MEK-2 to prevent p44 and p42 MAPK activation. SB202190 was used at 1 and 10 uM as inhibitor of p38 MAPK.
Densitometry analysis: The intensity of each band in immunoblot assay was quantified using molecular analyst/PC densitometry software (Bio-Rad). […] The data were presented as the mean±S.E., and analyzed by the Student's test.

[2] = administered at 100 mg/m^2; cited from earlier work
[3] = test system: Human Colon Carcinoma HT29; assay: MTT growth inhibitory assay, HT29; format: cell-based; conditions: for Enhancement Factor: HT29 cells, A3 antagonist at 0.5 μg/ml
Description: (§1) Interpretation of the EF is dependent upon the concentrations of A3 receptor antagonist tested. For example, when using very low concentrations of A3 receptor antagonist, any EF above 1.0 is synergistic if the A3 receptor antagonist concentration is below the threshold of cell growth inhibition.
(§2) The cells are sub-cultured twice a week.
(§3) Vinblastine sulfate salt was obtained from Sigma Chemical Co., (V1377). Irinotecan was diluted with culture medium. All other agents were dissolved in 100% DMSO at appropriate concentrations. The DMSO stock solutions were diluted 100-fold with growth medium so that the final DMSO concentration was 1%.

[4] = test system: Human Melanoma A375; assay: MTT growth inhibitory assay, A375; conditions: A375 cells
Description: An exemplary assay may comprise the following steps: Cells (1000-1500 cells/well) are seeded in a 96-well micro culture plate in a total volume of 100 μl/well. After overnight incubation in a humidified incubator at 37° C. with 5% CO2-95% air, chemotherapeutic drug solutions diluted with culture medium at various concentrations are added in the amount of 100 μl to each well. The plates are placed in a humidified incubator at 37° C. with 5% CO2-95% air for 7-10 days. The plates are then centrifuged briefly and 100 μl of the growth medium is removed. Cell cultures are incubated with 50 μl of MTT [3-(4,5-dimethylthiazol-2-yl)-2,5-diphenyl-tetrazolium bromide] reagent (1 mg/ml in Dulbecco's phosphate-buffered saline) for 4 hr at 37° C. The resultant purple formazan precipitate is solubilized with 200 μl of 0.04 N HCl in isopropanol. Absorbance is measured at a wavelength of 595 nm and at a reference wavelength of 655 nm using a Bio-Rad Model 3550 Microplate Reader. Preferably, all tests are run in duplicate for each dose level. […] The EZED50 computer program estimates the concentration of agent that inhibits cell growth by 50% as compared to the control cells. This is termed the IC50 and is determined by curve fitting test data using the following four logistic equation. [formula]
If testing concentrations are properly selected (i.e., no or little growth inhibition at low concentrations and complete inhibition at high concentrations), EZED50 program fits the data extremely well and estimates the IC50 value accurately. […] In these instances, the data could be re-analyzed by fixing the Amax value.
In this case, the IC50 could be estimated more accurately if both the Amax and Amin values are fixed. Although it may be feasible to estimate IC50 value by fixing Amax and/or Amax and Amin without repeating the experiment, the best way to determine the IC50 accurately is to decrease or increase the concentrations of the test agent and repeat the test.
Inhibitory assay testing is also used to determine enhanced therapeutic effects from combining A3 receptor antagonists with other tumor inhibiting agents. The inhibitory cell growth assays are run with and without selected concentrations of A3 receptor antagonists. An enhanced therapeutic effect is present when the IC50 of the tumor inhibiting agent is lower with the A3 receptor antagonist.
Quantitatively, the enhancement factor (EF) is calculated by dividing the IC50 value of the tumor inhibiting agent for a tumor cell line by the IC50 value of the agent with A3 receptor antagonist for the same cell line: [formula]
The cells are cultured in a T25 Falcon Tissue Culture flask in a humidified incubator at 37° C. with 5% CO2-95% air. The cells are sub-cultured twice a week.

[5] = target: P-gp (Homo sapiens, UniProt P08183); format: cell-based; conditions: for % of Rh123 Negative Cells (cells expressing P-gp activity): HeL023 cells
Chain of P-gp (P08183 whole entry): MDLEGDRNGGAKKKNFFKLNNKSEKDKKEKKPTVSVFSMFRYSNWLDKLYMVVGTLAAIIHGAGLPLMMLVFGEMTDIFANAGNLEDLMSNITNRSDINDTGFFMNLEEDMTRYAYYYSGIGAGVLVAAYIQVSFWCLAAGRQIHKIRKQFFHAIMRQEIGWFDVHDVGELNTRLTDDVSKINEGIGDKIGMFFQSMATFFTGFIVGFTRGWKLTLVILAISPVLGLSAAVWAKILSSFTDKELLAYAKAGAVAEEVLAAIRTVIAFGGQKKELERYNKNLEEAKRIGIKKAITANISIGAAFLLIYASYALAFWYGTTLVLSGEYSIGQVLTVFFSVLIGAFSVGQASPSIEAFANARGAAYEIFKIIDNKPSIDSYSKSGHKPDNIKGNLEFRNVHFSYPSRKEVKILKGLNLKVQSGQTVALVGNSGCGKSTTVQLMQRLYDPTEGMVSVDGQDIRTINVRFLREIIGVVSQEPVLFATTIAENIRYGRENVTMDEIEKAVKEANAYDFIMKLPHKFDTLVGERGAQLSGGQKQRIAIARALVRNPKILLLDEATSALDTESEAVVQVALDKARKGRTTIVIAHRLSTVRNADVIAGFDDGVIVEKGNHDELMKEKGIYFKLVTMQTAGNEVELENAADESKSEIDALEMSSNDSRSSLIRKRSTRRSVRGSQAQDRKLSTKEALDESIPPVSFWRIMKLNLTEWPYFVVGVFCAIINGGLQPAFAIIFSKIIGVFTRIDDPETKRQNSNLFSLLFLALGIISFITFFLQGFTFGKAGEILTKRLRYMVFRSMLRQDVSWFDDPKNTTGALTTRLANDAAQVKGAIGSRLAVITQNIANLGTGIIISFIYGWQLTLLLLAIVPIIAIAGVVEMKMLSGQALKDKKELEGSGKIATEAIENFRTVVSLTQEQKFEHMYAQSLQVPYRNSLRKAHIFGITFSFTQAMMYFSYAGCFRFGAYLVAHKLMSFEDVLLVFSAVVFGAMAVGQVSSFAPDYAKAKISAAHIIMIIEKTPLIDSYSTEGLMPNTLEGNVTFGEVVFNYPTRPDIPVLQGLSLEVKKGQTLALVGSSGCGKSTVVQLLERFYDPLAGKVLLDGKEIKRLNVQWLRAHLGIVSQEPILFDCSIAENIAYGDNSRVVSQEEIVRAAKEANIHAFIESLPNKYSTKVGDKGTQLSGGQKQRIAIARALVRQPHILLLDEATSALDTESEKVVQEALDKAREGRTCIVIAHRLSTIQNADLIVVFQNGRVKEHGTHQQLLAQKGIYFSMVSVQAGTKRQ
Description: Rhodamine 123 Efflux Assay: 5×10^5 cells from each subline were loaded with 50 ng/ml of rhodamine 123 for 30 minutes at 37 C in medium. The cells were washed and resuspended in dye-staining agent free medium for 3 hours at 37 C. to allow rhodamine 123 efflux. The cells were then washed twice and the fluorescence of intracellular rhodamine 123 were analysed with Flow cytometer (residual fluorescence FRES). The fluorescence was compared with loaded cells maintained at 4 C. to prevent drug export (maximal fluorescence FMAX). […] Cells from each subline that were not being exposed to rhodamine 123 were used as negative controls.
Rhodamine 123 (Rh123) retention, a P-gp functional assay, was studied in all cell lines. This assay was performed by incubating cells with Rh123 and determining Rh123 accumulation by measuring its fluorescence. The maximum load of Rh123 (FMAX) was quantified at the end of treatment harvesting the cells and storing them at 4° C. to prevent any active Rh123 efflux. The P-gp drug efflux was allowed incubating Rh123-loaded cells in fresh new medium Rh123-free for 3 hours at 37° C. After this incubation, residual fluorescence (FRES) was measured and compared to FMAX.

[6] = test system: Human Lung Carcinoma SKMES; assay: MTT growth inhibitory assay, SKMES; format: cell-based; conditions: SKMES cells, A3 antagonist at 0.5 μg/ml
Description: as §1, §2, §3

[7] = test system: Human Pancreatic Cancer Panc-1; assay: MTT growth inhibitory assay, Panc-1; format: cell-based; conditions: Panc-1 cells, A3 antagonist at 0.5 μg/ml
Description: as §1, §2, §3

[8] = test system: A375 cells; assay: Flow cytometry cell cycle (G2/M) and apoptosis (sub-G1) analysis, A375; format: cell-based, human; conditions: for reduction of apoptosis induced by paclitaxel: A375, paclitaxel 25 ng/ml, PD98059 20 μM, U0126 30 μM, SB203580 1 μM; for EC50: Homo sapiens
Description: Flow Cytometry Analysis: A375 and NCTC2544 adherent cells were trypsinized, mixed with floating cells, washed with PBS and permeabilised in 70% (vol/vol) ethanol/PBS solution at 4° C. for at least 24 hours. Jurkat, HeL023 and PBMC cells were centrifuged for 10 minutes at 1000×g. The cell pellet was then resuspended and permeabllised in 70% (vol/vol) ethanol/PBS solution at 4° C. for at least 24 hours. The cells were washed with PBS and the DNA was stained with a PBS solution, containing 20 μg/ml of propidium iodide and 100 μg/ml of RNAse, at room temperature for 30 minutes. Cells were analysed by FACScan (Becton-Dickinson) and the content of DNA was evaluated by the Cell-LISYS program (Becton-Dickinson). Cell distribution among cell cycle phases and apoptotic cells was evaluated as previously described (Secchiero et al., 2001). Briefly, the cell cycle distribution is shown as the percentage of cells containing 2n (G1 phase), 4n (G2 and M phases), 4n>x>2n. DNA amount (S phase) judged by propidium iodide staining. The apoptotic population is the percentage of cells with DNA content lower than 2n.
After 24 hours, cells were collected for flow cytometry analysis. PD 98059 was used at 20 uM as an inhibitor of MEK to prevent MEK-1 activation. […]
EC50 values were obtained by analysing G2/M accumulation dose response curve. ECMAX values were obtained by analysing sub-G1 accumulation dose response curve. Paclitaxel values have units of ng/ml.

Nc1nc2c(cnn2CCc2ccccc2)c2nc(-c3ccco3)nn12 [SCH 58261, 5-amino-7-(2-phenylethyl)-2-(2-furyl)-pyrazolo[4,3-e]-1,2,4-triazolo[1,5-c]pyrimidine]
effect on adenosine-induced HIF-1α protein expression [1]: not able to prevent

CC(=O)O[C@@]12CO[C@@H]1C[C@H](O)[C@@]1(C)C(=O)[C@H](O)C3=C(C)[C@@H](OC(=O)[C@H](O)[C@@H](NC(=O)OC(C)(C)C)c4ccccc4)C[C@@](O)([C@@H](OC(=O)c4ccccc4)[C@H]21)C3(C)C [docetaxel]
acute hypersensitivity reaction, % of patients [2]: 13%
severe hypersensitivity reaction, % of patients [2]: 1.2%

O=C1c2c(O)ccc(O)c2C(=O)c2c(NCCNCCO)ccc(NCCNCCO)c21 [mitoxantrone, reference compound]
fold more refractory, HT29 vs A375 cell line (IC50) [3]: approximately 30 fold

Cn1cc2c(nc(NC(=O)Nc3ccncc3)n3nc(-c4ccco4)nc23)n1 [MRE 3005F20]
effect on Cl-IB-MECA-induced HIF-1α modulation ([1]; hypoxia, antagonist 10 and 100 nM, Cl-IB-MECA 10 and 100 nM): able to abrogate the effect of Cl-IB-MECA

CCN(CC)c1ccc(NC(=O)Nc2nc3nn(C)cc3c3nc(-c4ccco4)nn23)cc1.Cl [IL-10, N-1-(4-diethylamino-phenyl)-N′—S-[8-methyl-2-(2-furyl)-pyrazolo[4,3-e]1,2,4-triazolo[1,5-c]pyrimidine]-urea]
Enhancement Factor ([4]; enhancement of docetaxel IC50, A3 antagonist at 0.5 μg/ml): 8.4
Enhancement Factor ([4]; enhancement of docetaxel IC50, A3 antagonist at 5 μg/ml): 2.9
Enhancement Factor ([4]; enhancement of paclitaxel IC50, A3 antagonist at 0.5 μg/ml): 3.7
Enhancement Factor ([4]; enhancement of paclitaxel IC50, A3 antagonist at 5 μg/ml): 8.8 and 9.2
% of Rh123 Negative Cells (cells expressing P-gp activity) ([5]; 10 μM): 0.4 ± 0.2%
Enhancement Factor ([3]; enhancement of docetaxel IC50): 5.5
Enhancement Factor ([3]; enhancement of doxorubicin IC50): 1.5
Enhancement Factor ([3]; enhancement of irinotecan IC50): 1.2
Enhancement Factor ([3]; enhancement of paclitaxel IC50): 2.5
Enhancement Factor ([6]; enhancement of docetaxel IC50): 2.8
Enhancement Factor ([6]; enhancement of irinotecan HCL IC50): 1.7
Enhancement Factor ([6]; enhancement of paclitaxel IC50): 2.8
Enhancement Factor ([6]; enhancement of vinblastine IC50): 1.4
Enhancement Factor ([7]; enhancement of docetaxel IC50): 1.4
Enhancement Factor ([7]; enhancement of paclitaxel IC50): 1.7

N#CC(=C(/N)Sc1ccccc1N)/C(C#N)=C(\N)Sc1ccccc1N [Compound U0126]
effect on MRE 3008F20 blockade of P-gp ([5]; A375, U0126 30 μM 30 minutes, then MRE3008F20 10 μM): failed to prevent MRE 3008F20 blockade of P-gp
effect on Cl-IB-MECA-induced increase of HIF-1α protein expression [1]: able to inhibit
reduction of apoptosis induced by paclitaxel [8]: 73±10%

Cc1ccc(NC(=O)Nc2nc3nn(C)cc3c3nc(-c4ccco4)nn23)cc1 [MRE 3046F20, 5-N-(4-methylphenyl-carbamoyl)amino-8-methyl-2(2-furyl)-pyrazolo-[4,3e]-1,2,4-triazolo[1,5-c]pyrimidine]
% of Rh123 Negative Cells (cells expressing P-gp activity) ([5]; 10 μM): 22.0 ± 1.0%
EC50 ([8]; A-375, read-out: SEC50): 570 ± 60 nM

COc1cccc2c1C(=O)c1c(O)c3c(c(O)c1C2=O)C[C@@](O)(C(=O)CO)C[C@@H]3O[C@H]1C[C@H](N)[C@H](O)[C@H](C)O1 [doxorubicin, reference compound]
fold more refractory, HT29 vs A375 cell line (IC50) [3]: approximately 30 fold

CC[C@]1(O)C[C@@H]2CN(CCc3c([nH]c4ccccc34)[C@@](C(=O)OC)(c3cc4c(cc3OC)N(C)[C@H]3[C@@](O)(C(N)=O)[C@H](O)[C@]5(CC)C=CCN6CC[C@]43[C@@H]65)C2)C1 [vindesine]
EC50 ([8]; A-375, 24 h, read-out: EC50 (G2/M accumulation)): 1.9 ± 0.2 nM

CCCn1cc2c(nc(NC(=O)Nc3ccccc3)n3nc(-c4ccco4)nc23)n1 [MRE 3055F20, 5-N-(4-phenylcarbamoyl)amino-8-propyl-2(2furyl)-pyrazolo[4,3e]-1,2,4-triazolo-[1,5c]pyrimidine]
% of Rh123 Negative Cells (cells expressing P-gp activity) ([5]; 10 μM): 0.8 ± 0.2%
EC50 ([8]; A-375, read-out: SEC50): 310 ± 30 nM

CCCn1c(=O)c2[nH]c(-c3cc(OCC(=O)Nc4ccc5c(c4)OCO5)nn3C)nc2n(CCC)c1=O [MRE 2029F20]
effect on adenosine-induced HIF-1α protein expression [1]: not able to prevent

C[S+]([O-])c1ccc(-c2nc(-c3ccncc3)c(-c3ccc(F)cc3)[nH]2)cc1 (stereo not shown) [SB203580]
reduction of apoptosis induced by paclitaxel [8]: did not exert any effect

Oc1ccc(-c2nc(-c3ccncc3)c(-c3ccc(F)cc3)[nH]2)cc1 [SB202190]
effect on Cl-IB-MECA-induced increase of HIF-1α protein expression [1]: able to inhibit

Nc1nc2ccc(Cl)cc2c2nc(-c3ccco3)nn12 [CGS 15943, 5-amino-9-chloro-2-(furyl)1,2,4-triazolo[1,5-c]quinazoline, reference compound]
% of Rh123 Negative Cells (cells expressing P-gp activity) ([5]; 70 μM): 87.1 ± 1.0%
EC50 ([8]; A-375, read-out: SEC50): 12600 ± 1410 nM
